In patent US20260217732A1, “WRN INHIBITOR” (SUZHOU PUHE BIOPHARMA CO., LTD., priority 2022, published 2026):

Legend:
[1] = test system: SW48 (MSI-H) colorectal cancer tumor cells; experiment: In vivo efficacy, SW48 xenograft in nude mice; design: species or system BALB/c nude mice; conditions: QD, oral; for TGI: 21 days; for Tumor Volume D 1: day 1; for Tumor volume D 21: day 21
Protocol: In vivo efficacy experiment in BALB/C nude mice. Details are as follows:
SW48 (MSI-H) colorectal cancer tumor cells were cultured (in an L15 medium with 10% fetal bovine serum), and inoculated into 6-8 week old female BALB/c nude mice (with body weight of about 20 g). All the mice were inoculated subcutaneously. The mice were raised in an SPF-grade experimental environment, and all the mice were free to take commercially certified standard diets. When the tumors grew to an average volume of about 160 mm^3 in mice, the test compound was orally administered daily. […] The tumor volume was measured with a two-dimensional caliper three times a week, and the animals were weighed every day. […] The volume calculation formula is: V=1/2a*b^2, where a represents the long diameter of the tumor and b represents the short diameter of the tumor.

[2] = female, CD1, mouse, in vivo
Protocol: (§1) Mouse Pharmacokinetic Evaluation Experiment
(§2) CD1 female mice were used as test animals to be administered orally/intravenously (with oral dosage of 10 mg/kg or intravenous dosage of 2 mg/kg).
(§3) Experimental scheme: The oral administration group comprised 3 mice per group (Solvent: 10% Hβ-CD-pH7.4), and the intravenous group comprised 3 mice per group. […] The blood concentration in the plasma of mice was determined using the LC/MS/MS method after the oral or intravenous administration, respectively, and the collected data were calculated using the AB Sciex QTRAP 6500 software.

in vivo = conditions: female, CD1, mouse
Protocol: as §1, §2, §3

WRN enzyme = biological target: T1, WRN enzyme (Homo sapiens, UniProt Q14191); experiment: WRN helicase hydrolysis (unwinding) of double-stranded DNA, fluorescence assay; assay type: biochemical; conditions: 30 min pre-incubation, 60 min reaction
T1 construct: 10 μL (2×) of WRN enzyme solution was added
Protocol: • The molecules of the present disclosure were tested for their activities on the WRN helicase hydrolysis of double-stranded DNA (Table 1).
A working solution to be tested and a buffer were prepared. The compound to be tested was dissolved in DMSO and subjected to 4× dilution (with 10 μM final concentration as the starting concentration). 0.2 μL of the solution of the compound to be tested was added to the 384-well plate and 10 μL (2×) of WRN enzyme solution was added. The solution was incubated in the dark for 30 minutes. Then, 10 μL of a substrate detection solution containing double-stranded DNA was added to initiate the reaction (the DNA has a length of 19 bp, and labeled with TAMRA and BHQ2 at 3′ and 5′-ends, respectively). The solution was incubated at room temperature for 60 minutes. The inhibitory activities (IC50) against WRN enzyme were calculated based on the change of Ex530/Em590 in the blank group (DMSO) and the compound group.

[3] = test system: SW48 colorectal cancer cells; experiment: 2D antiproliferation on MSI-H SW48 cells, CTG, 5 days; assay type: cell-based; conditions: Homo sapiens, 120 h; SW48 MSI-H, 5 days
How it was run: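 MSI-H SW48 colorectal cells in RPMI1640 with 10% FBS exposed to graded compound concentrations for 5 days at 37 °C, 5% CO2. Viability read as CellTiter-Glo ATP luminescence after 30 min.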

[4] = test system: HT-29 colorectal cancer cells; experiment: 2D antiproliferation on MSS HT-29 cells, CTG, 5 days; assay type: cell-based; conditions: Homo sapiens, 120 h, HT-29 MSS
How it was run: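 HT-29 (MSS) colorectal cells in McCoy's 5A with 10% FBS were exposed to a range of compound concentrations for 5 days at 37° C, 5% CO2. Viability was read as CellTiter-Glo luminescence after 30 min, which reflects ATP content.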

[5] = Caco-2 membrane permeability assay; assay type: in vitro ADME; conditions: human
Protocol: Membrane Permeability Evaluation Experiments: Caco-2 Assays
The molecules of the present disclosure were evaluated for their membrane permeability. […] Data would be used for apparent permeability (Papp).
wherein VA is the volume of the receptor pore (unit: mL), Area is the surface area of the membrane (0.143 cm^2 for Transwell-96 well permeable scaffolds), and time is the total transport time (unit: seconds).

[6] = Caco-2, apical pH 6.5, basolateral pH 7.4

T1 sequence (Q14191 whole entry): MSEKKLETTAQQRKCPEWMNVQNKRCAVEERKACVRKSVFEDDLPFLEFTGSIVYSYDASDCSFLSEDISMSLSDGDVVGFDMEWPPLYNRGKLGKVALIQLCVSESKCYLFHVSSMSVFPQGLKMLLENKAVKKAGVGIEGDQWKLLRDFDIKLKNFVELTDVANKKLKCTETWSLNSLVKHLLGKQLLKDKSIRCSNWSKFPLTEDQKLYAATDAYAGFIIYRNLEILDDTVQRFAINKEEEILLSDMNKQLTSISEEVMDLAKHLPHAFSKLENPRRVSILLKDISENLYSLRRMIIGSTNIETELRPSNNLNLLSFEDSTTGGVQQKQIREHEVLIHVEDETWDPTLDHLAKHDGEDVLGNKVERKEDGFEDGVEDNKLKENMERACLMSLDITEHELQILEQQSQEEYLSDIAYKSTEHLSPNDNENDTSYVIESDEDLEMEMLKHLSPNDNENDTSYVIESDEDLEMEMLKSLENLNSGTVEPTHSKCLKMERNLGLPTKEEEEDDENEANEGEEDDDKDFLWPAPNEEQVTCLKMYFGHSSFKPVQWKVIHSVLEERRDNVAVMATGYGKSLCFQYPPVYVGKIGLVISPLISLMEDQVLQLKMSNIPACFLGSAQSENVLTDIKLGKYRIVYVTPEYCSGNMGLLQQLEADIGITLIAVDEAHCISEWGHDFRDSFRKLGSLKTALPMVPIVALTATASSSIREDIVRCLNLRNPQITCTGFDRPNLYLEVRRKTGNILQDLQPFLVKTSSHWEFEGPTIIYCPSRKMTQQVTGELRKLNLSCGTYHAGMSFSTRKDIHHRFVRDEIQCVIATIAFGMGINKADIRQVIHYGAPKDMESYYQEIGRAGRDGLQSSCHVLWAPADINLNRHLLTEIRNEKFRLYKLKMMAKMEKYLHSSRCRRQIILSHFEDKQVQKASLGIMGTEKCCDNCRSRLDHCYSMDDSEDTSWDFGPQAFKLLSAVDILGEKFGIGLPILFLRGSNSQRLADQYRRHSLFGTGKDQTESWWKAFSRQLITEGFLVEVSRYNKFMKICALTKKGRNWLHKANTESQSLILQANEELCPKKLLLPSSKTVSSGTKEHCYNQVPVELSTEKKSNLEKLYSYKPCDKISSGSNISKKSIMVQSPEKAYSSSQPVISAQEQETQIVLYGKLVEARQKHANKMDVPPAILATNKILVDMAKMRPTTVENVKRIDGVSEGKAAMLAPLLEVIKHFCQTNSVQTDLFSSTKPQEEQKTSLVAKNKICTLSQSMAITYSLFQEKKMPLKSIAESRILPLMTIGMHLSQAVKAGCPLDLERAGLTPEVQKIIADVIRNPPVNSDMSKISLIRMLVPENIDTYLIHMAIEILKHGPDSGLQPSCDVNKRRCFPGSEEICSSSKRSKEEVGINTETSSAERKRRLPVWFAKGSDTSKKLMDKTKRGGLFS

F [2] [%]	AUC(0-t) (in vivo; iv, 2 mg/kg) [ng·h/mL]	C0 (in vivo; iv, 2 mg/kg) [ng/mL]	clearance (in vivo; iv, 2 mg/kg) [mL/min/kg]	half-life (in vivo; iv, 2 mg/kg) [h]	AUC(0-t) (in vivo; po, 10 mg/kg) [ng·h/mL]	Cmax (in vivo; po, 10 mg/kg) [ng/mL]	Tmax (in vivo; po, 10 mg/kg) [h]	half-life (in vivo; po, 10 mg/kg) [h]	IC50 [3] [nM]	SMILES	other results
14	1190	2520	28.1	1.3	801	584	0.5	1.4		CCc1c(N2CCN(C(=O)c3ncccc3O)CC2)c(=O)n2nc(-c3cccnc3)nc2n1CC(=O)Nc1ccc(C(F)(F)F)cc1C [A1, reference compound]	TGI ([1]; 20 mg/kg): 16%; Tumor Volume D 1 ([1]; 20 mg/kg): 162 mm^3; Tumor volume D 21 ([1]; 20 mg/kg): 1672 mm^3; TGI ([1]; 50 mg/kg): 50%; Tumor Volume D 1 ([1]; 50 mg/kg): 160 mm^3; Tumor volume D 21 ([1]; 50 mg/kg): 1065 mm^3
41	2970	5260	11.2	0.9	6070	2850	0.25	1.3	39	CCc1c(N2CCN(C(=O)c3ncnc(C)c3O)CC2)c(=O)n2nc(-c3cc4c(s3)COC4)nc2n1CC(=O)Nc1ccc(Br)c2ccoc12 [P59]	IC50 (WRN enzyme): 1.5 nM; IC50 [4]: > 10000 nM
									37	CCc1c(N2CCN(C(=O)c3ncnc(C)c3O)CC2)c(=O)n2nc(-c3cc4c(s3)COC4)nc2n1CC(=O)Nc1ccc(C(F)(F)F)c(C)c1C [P62]	efflux ratio ([5]; Caco-2): 11.6; Papp A→B [5, 6]: 1.54 ×10⁻⁶ cm/s; Papp B→A [5, 6]: 17.9 ×10⁻⁶ cm/s
